# Measured values taken from US8975265B2, “Substituted imidazo[1,2-a]pyrimidines and —pyridines” (Bayer Intellectual Property GmbH, priority 2010, dated 2015).
# Read-outs that look alike come from different tables or passages of the source.
# How the values were obtained:
# [1] = system: p-AKT1/2/3-S473 in KPL4 breast tumour cell line; assay: Cellular p-AKT1/2/3-S473 assay; assay type: cell-based; details: KPL4 breast tumour cell line, 2 hours treatment; read-out: pAKT-S743 median IC50
# Outline: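 KPL4 cells (PIK3CA H1047R, HER2 0/E, hormone independent) were seeded at 60–80% confluency, cultured overnight, then exposed to compound for 2 h at 37 °C. pAKT-S473 and total AKT measured together by MSD Akt Duplex on 20 µg extract; pAKT expressed as % of total AKT, at least duplicate with independent repeats.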
# [2] = biological target: His-tagged human recombinant kinase full-length Akt1 (Homo sapiens (Human), UniProt P31749); assay: Akt1 kinase assay (TR-FRET); assay type: biochemical; details: 10 μM ATP; read-out: Akt1, median IC50
# Outline: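 Full-length His-tagged Akt1 (about 0.05 ng/μl final) preincubated 15 min at 22 °C with compound in 50 mM TRIS/HCl pH 7.5, 5 mM MgCl2, 1 mM DTT, 0.02% Triton X-100; biotinylated peptide substrate. Phosphopeptide detected by TR-FRET (Eu-chelate antibody to streptavidin-XL665) after 1 h at 22 °C.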
# [3] = system: p-AKT S473 in PC3 human prostate tumours; assay: In vivo xenograft mechanism of action study; set-up: species or system athymic nude mice; details: Mus musculus, po, PC3 tumours in nude mice, once 50 mg/kg p.o.
# Text: In Vivo Xenograft Mechanism of Action Study
# To this extent PC3 human prostate tumours were xenografted onto athymic nude mice. PC3 tumour cells were cultivated according to ATCC protocols in recommended media contained 10% FCS and harvested for transplantation in a subconfluent (70%) state. 3×10^6 tumour cells suspended in 50% Matrigel were subcutaneously implantated into the inguinal region of male mice. Tumours were allowed to grow to the predetermined size of 60-80 mm^2. When the tumours were approximately in size, the animals were randomized to treatment and control groups (groups size: 9 animals) and treatment was started. Animals were treated once with 50 mg/kg compound or vehicle per oral administration (p.o.) carried out via a gastric tube. Treatment of each animal was based on individual body weight. At 2, 5 and 24 hours post treatment 3 animals each were sacrificed and the PC3 tumours excised. Tumour samples of approximately 5×5×5 mm were lysed on ice in MSD lysis buffer in the presence of protease and phosphatase inhibitors using Tissue Lyzer (Qiagen, Germany). The levels of p-AKT S473 in extracts from tumour tissue were analysed in an ELISA based assay. This assay is based on the “Akt Duplex” of the MULTI-SPOT® Assay System (Fa. Meso Scale Discovery, Cat# N41100B-1) following manufacturers instructions. Each assay used 20 μg of protein extract and measured total AKT and p-AKT content simultaneously in one well. All measurements where at least done in duplicates and confirmed by independent repetition.
# Values for P-AKT are expressed as percentage of P-AKT level compared to total-AKT content of the extracts. Vehicle treated tumours were analyzed to determine the basal level of P-AKT in this model and used as a normalization control to determine the % P-AKT relative to vehicle levels.
# [4] = system: KPL-4 breast cancer cell line; assay: Tumor cell proliferation assay (CellTiter-Glo, 72 h), KPL-4; assay type: cell-based; details: KPL4, 72h drug exposure
# Outline: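 KPL-4 cells were treated with compound for 72 h at 37°C. Viability was measured as ATP by CellTiter-Glo luminescence, with a separate t=0 plate read after overnight attachment. A reference compound was run as standard.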
# [5] = system: p-4E-BP1-T70 in KPL4 breast tumour cell line; assay: Cellular p-4E-BP1-T70 assay; assay type: cell-based; details: 2 hours treatment, read-out: P4EBP1-T70 median IC50
# Protocol: The molecular mechanism of action was investigated in a set of experiments to assess the inhibition of the PI3K-AKT-mTOR pathway in responsive cell lines such as KPL4 breast tumour cell line (PIK3CAH1047R, HER20/E and hormone independent). The phospho-substrates of PI3K-AKT-mTOR axis were used as the read-outs to reflect pathway inhibition. Cells were seeded at 60-80% confluency per well in 96-well cell culture plates. After overnight incubation at 37° C. 5% CO2, cells were treated with compounds and vehicle at 37° C. for 2 hours. Thereafter, cells were lysed in 150 μl lysis buffer and the levels of phospho-AKT at T308 and S473 and p-4E-BP1 at T70 sites were determined with the corresponding AlphaScreen® SureFire® assay kits (Perkin Elmer: 4E-BP1 Assay Kit Cat # TRG4E2S10K; Akt 1/2/3 p-Ser 473 #TGRA4S500 and Akt 1/2/3 p-Thr 308 #TGRA3S500 as well as IgG detection Kit #6760617M) as described in the manuals. All measurements where at least done in duplicates and confirmed by independent repetition.
# [6] = system: MCF7; assay: Tumor cell proliferation assay (CellTiter-Glo, 72 h), MCF7; assay type: cell-based; details: Homo sapiens, 72h drug exposure
# Protocol: Compounds were tested in a cell-based assay that measures the capacity of the compounds to inhibit tumour cell proliferation following a 72h drug exposure. Cell viability is determined using CellTiter-Glow® (CTG, Promega, cat# G7571/2/3). The CellTiter-Glo® Luminescent Cell Viability Assay is a homogeneous method to determine the number of viable cells in culture. Detection is based on using the luciferase reaction to measure the amount of ATP from viable cells. The amount of ATP in cells correlates with cell viability. Within minutes after a loss of membrane integrity, cells lose the ability to synthesize ATP, and endogenous ATPases destroy any remaining ATP; thus the levels of ATP fall precipitously.
# Cells were plated at 3000-5000 cells/well (depending on the cell lines) in 90 μL growth medium on MTPs (Corning; #3603, black plate, clear flat bottom). For each cell line assayed, cells were plated onto a separate plate for determination of […] at t=0 hour and t=72 hour time points. Following overnight incubation at 37° C., chemiluminescence values for the t=0 samples were determined after adding 10 μl medium and 100 μl CTG solution according to manufacture protocol. Plates for the t=72 hour time points were treated with compounds diluted into growth medium at ten times final concentration added in 10 μL to the cell culture plate. Cells were then incubated for 72 hours at 37° C. Chemiluminescence values for the t=72 hour samples were determined. […] Experiments were controlled using a reference compound as standard.
# [7] = 2 hours post treatment, read-out: P-AKT % relative to control at 2 hours
# [8] = 5 hours post treatment, read-out: P-AKT % relative to control at 5 hours
# Sequence of His-tagged human recombinant kinase full-length Akt1 (P31749 whole entry): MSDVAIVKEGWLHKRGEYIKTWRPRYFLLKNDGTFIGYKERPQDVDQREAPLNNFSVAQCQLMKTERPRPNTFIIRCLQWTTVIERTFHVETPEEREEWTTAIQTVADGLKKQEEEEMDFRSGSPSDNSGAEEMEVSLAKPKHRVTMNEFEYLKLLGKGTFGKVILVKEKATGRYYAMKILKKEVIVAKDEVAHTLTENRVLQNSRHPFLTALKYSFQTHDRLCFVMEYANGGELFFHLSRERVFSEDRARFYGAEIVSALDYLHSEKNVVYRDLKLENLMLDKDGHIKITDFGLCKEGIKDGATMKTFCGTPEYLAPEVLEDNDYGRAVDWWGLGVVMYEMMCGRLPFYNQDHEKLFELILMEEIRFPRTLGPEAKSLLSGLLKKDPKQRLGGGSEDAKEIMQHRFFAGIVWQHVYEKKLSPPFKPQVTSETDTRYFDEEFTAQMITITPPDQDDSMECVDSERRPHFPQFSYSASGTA
IC50 [1] [nM],IC50 [2] [nM],IC50 [4] [nM],IC50 [5] [nM],IC50 [6] [nM],SMILES,"response vs control in vivo at 50 mg/kg [3, 7] [%]","response vs control in vivo at 50 mg/kg [3, 8] [%]"
1610,893,10000,1840,10000,Cc1cc(C(N)=O)c2nc(-c3ccc(C4(N)CCC4)cc3)c(-c3ccccc3)n2c1 [Example 2-96],12.2,11.4
1100,–,1800,3480,1700,Cc1c(Cl)cn2c(-c3ccccc3)c(-c3ccc(C4(N)CCC4)cc3)nc2c1Br [Example 2-81],33.6,69.6
235,–,1800,3980,1700,Cc1cc(C)c2nc(-c3ccc(C4(N)CCC4)cc3)c(-c3ccccc3)n2c1 [Example 2-73],9.1,9.3
49,19,1500,–,1100,COc1cc(Br)cn2c(-c3ccccc3)c(-c3ccc(C4(N)CCC4)cc3)nc12 [Example 2-52],34.9,47.9
33,–,600,–,–,NC(=O)c1ccn2c(-c3ccccc3)c(-c3ccc(C4(N)CCC4)cc3)nc2c1 [Example 2-41],10.2,8.8
528,–,2000,1420,1800,Cc1cc(-c2cn[nH]c2)c2nc(-c3ccc(C4(N)CCC4)cc3)c(-c3ccccc3)n2c1 [Example 2-93],46,79.2
25,71,800,–,700,NC1(c2ccc(-c3nc4cc(-c5ncc[nH]5)ccn4c3-c3ccccc3)cc2)CCC1 [Example 2-114],47,57.2
–,–,–,–,–,"COc1ccn2c(-c3ccccc3)c(-c3ccc(C4(N)CCC4)cc3)nc2n1 [Example 2-00, 1-[4-(7-methoxy-3-phenyl-imidazo[1,2-a]pyrimidin-2-yl)-phenyl]-cyclobutylamine]",4.7,6.3
770,–,2000,–,–,NC1(c2ccc(-c3nc4ncc(-c5ccccc5)cn4c3-c3ccccc3)cc2)CCC1 [Example 1-9],32.2,21.1
16,58,800,620,400,"NC(=O)c1cccn2c(-c3ccccc3)c(-c3ccc(C4(N)CCC4)cc3)nc12 [Example 6-0, 2-[4-(1-amino-cyclobutyl)-phenyl]-3-phenyl-imidazo[1,2-a]pyridine-8-carboxylic acid amide]",5.8,6
377,67,1900,1590,1800,NC(=O)c1cc(-c2cn[nH]c2)cn2c(-c3ccccc3)c(-c3ccc(C4(N)CCC4)cc3)nc12 [Example 2-97],–,–
115,–,1900,2660,500,NC1(c2ccc(-c3nc4ccc(Cl)cn4c3-c3ccccc3)cc2)CCC1 [Example 2-140],26,18
43,–,700,636,600,COc1cc(OC)c2nc(-c3ccc(C4(N)CCC4)cc3)c(-c3ccccc3)n2c1 [Example 2-146],17.5,22.3
33,–,500,–,–,NC(=O)c1ccc2nc(-c3ccc(C4(N)CCC4)cc3)c(-c3ccccc3)n2c1 [Example 2-18],8,7.7
161,5,1900,1800,1400,NC1(c2ccc(-c3nc4c(Br)cc(Cl)cn4c3-c3ccccc3)cc2)CCC1 [Example 2-85],–,–
67,201,900,54,1200,Cc1c(C(N)=O)cn2c(-c3ccccc3)c(-c3ccc(C4(N)CCC4)cc3)nc2c1C [Example 2-100],–,–
2570,187,2500,8520,2100,Cc1c(Cl)cn2c(-c3ccccc3)c(-c3ccc(C4(N)CCC4)cc3)nc2c1-c1ccn[nH]1 [Example 2-88],–,–
112,175,300,348,200,Cc1cc(-c2cccnc2)cn2c(-c3ccccc3)c(-c3ccc(C4(N)CCC4)cc3)nc12 [Example 2-104],–,–
337,–,1900,1560,1700,Cc1cc(-c2cccnc2)c2nc(-c3ccc(C4(N)CCC4)cc3)c(-c3ccccc3)n2c1 [Example 2-90],51.6,53.7
669,217,2200,573,1800,Cc1cc(-c2cc(C)c3nc(-c4ccc(C5(N)CCC5)cc4)c(-c4ccccc4)n3c2)[nH]n1 [Example 2-105],–,–
248,148,1700,1340,500,CCc1cc(OC)c2nc(-c3ccc(C4(N)CCC4)cc3)c(-c3ccccc3)n2c1 [Example 2-147],–,–
349,191,1600,1380,800,C=Cc1cc(OC)c2nc(-c3ccc(C4(N)CCC4)cc3)c(-c3ccccc3)n2c1 [Example 2-160],–,–
